According to PMC11489133, “Obicetrapib exhibits favorable physiochemical and pharmacokinetic properties compared to previous cholesteryl ester transfer protein inhibitors: An integrated summary of results from non‐human primate studies and clinical trials” (Pharmacology Research & Perspectives, 2024):
Like-named read-outs stand apart in the source and are kept apart here.

Key:
[1] = cited from earlier work
[2] = cited from earlier work; remark: listed apart in the source
[3] = pH 7.4; cited from earlier work
[4] = design: method as in PMID 28847206; details: added to high‐intensity statin therapy, compared to placebo; cited from earlier work
[5] = cited from earlier work; remark: listed apart in the source
[6] = absorption, metabolism and excretion study of a single 10 mg dose of 14C-obicetrapib (NCT02408055, TA‐8995‐07); assay type: in vivo, humans; details: male, human, in vivo
Description: Figure 2 illustrates the obicetrapib (TA‐8995) M1 detected above the LLOQ (>1% radioactivity) in human plasma expressed as the percent radioactivity profiled. A study (NCT02408055) was conducted in healthy male participants (n = 6) to assess the absorption, metabolism, and excretion of a single dose of 10 mg of ^14C‐obicetrapib (TA‐8995‐07 CSR, NewAmsterdam Pharma). One of the objectives of the study was to determine the chemical structure of ^14C‐obicetrapib M1 that represent ≥10% of total radioactivity in plasma. The participants received 10 mL ^14C‐obicetrapib oral suspension, containing 10 mg and 100 μCi of ^14C‐obicetrapib in the fasted state. Clinical samples for analysis were selected based upon the levels of radioactivity present as determined by liquid scintillation counting and were stored at below −50°C (nominally −80°C) when not in use. Plasma samples from the participants were sequentially extracted with acetonitrile at five time points. The resulting extracts were concentrated by evaporation and reconstituted in mobile phase HPLC prior to analysis by radio‐HPLC. All samples were analyzed by liquid scintillation counting to evaluate the recovery of radioactivity. The profiles of the radiolabeled components in each sample of plasma were determined by HPLC analysis with off‐line radio‐detection. Selected samples from each matrix were then further analyzed by high‐resolution mass spectrometry to investigate the identity of M1. In plasma, the predominant metabolite component was unchanged obicetrapib (~79% of total drug‐related exposure), and the most abundant plasma M1 were M1 and P9 of which each accounted for ~4% of total exposure (Figure 2). No significant differences in the metabolite profiles were observed across the samples obtained from the six participants (TA‐8995‐07 CSR, NewAmsterdam Pharma).

Structure (SMILES)	cLogDpH7.4 [3]	PSA [5] [Å^2]	accumulation in adipose tissue ([1]; human, in vivo)	increase of C max by a high‐fat meal compared to fasting conditions [2] [fold]	percent radioactivity profiled in human plasma [6]	also measured
COc1cc(F)c(C(C)C)cc1-c1ccc(C(F)(F)F)cc1CN1C(=O)O[C@H](c2cc(C(F)(F)F)cc(C(F)(F)F)c2)[C@@H]1C [anacetrapib, Anacetrapib]	9.2	39	–	–	–	time detected in plasma after the last treatment dose ([1]; 76‐week DEFINE trial): up to 4 years; half‐life ([1]; human, in vivo): up to 80 h; accumulation in adipose tissue ([1]; subcutaneous adipose biopsy measurements, compared to plasma levels): accumulated in adipose tissue at much higher concentrations and for a prolonged period; increase in plasma levels, fed versus fasted state ([2]; in vivo): 2-8 fold; increase of AUC (0‐∞) by a high‐fat meal compared to a fasting state ([2]; in vivo): 6 fold; increase of C max by a high‐fat meal compared to a fasting state ([2]; in vivo): 8 fold; reduced risk of major adverse coronary events [4]: 9%
Cc1cc(C)c2c(c1)[C@@H](N(Cc1cc(C(F)(F)F)cc(C(F)(F)F)c1)c1nnn(C)n1)CCCN2C[C@H]1CC[C@H](C(=O)O)CC1 [evacetrapib, Evacetrapib]	7.9	87	no accumulation in adipose tissue	1.5	–	t 1/2 ([1]; once daily doses between 10 and 600 mg for up to 15 days): 40 h; increase of AUC(τ) by a high‐fat meal compared to fasting conditions [2]: 1.4 fold
CCOC(=O)N1c2ccc(C(F)(F)F)cc2[C@@H](N(Cc2cc(C(F)(F)F)cc(C(F)(F)F)c2)C(=O)OC)C[C@H]1CC [torcetrapib, Torcetrapib]	7.6	59	no accumulation in adipose tissue	–	–	t 1/2 ([1]; single ascending dose study): 211 h
CCC1CC(N(Cc2cc(C(F)(F)F)cc(C(F)(F)F)c2)c2ncc(OCCCC(=O)O)cn2)c2cc(C(F)(F)F)ccc2N1 (stereo not drawn) [M1]	–	–	–	–	approx. 4%	–
O=C(O)COc1cnc(NCc2cc(C(F)(F)F)cc(C(F)(F)F)c2)nc1 [P9]	–	–	–	–	approx. 4%	–
CCC(CC)CC1(C(=O)Nc2ccccc2SC(=O)C(C)C)CCCCC1 [dalcetrapib, Dalcetrapib]	7.2	46	–	2.3	–	t 1/2 ([1]; once daily doses between 300 and 1200 mg, short‐term investigations): 30 h; accumulation in adipose tissue ([1]; other CETP inhibitors): no accumulation in adipose tissue; increase of AUC(0–36) by a high‐fat meal compared to fasting conditions [2]: 1.6 fold
